“And” between values parts separate entries of the source, which are not always exact repeats. Identical values can stand only once.
Test system: 138582-337-R-J1-PDC complex spheroid viability
Test: Anticancer human tumor 138582-337-R-J1-PDC patient-derived Merkel cell tumor cell line growth inhibition
Conditions: for viability, T/C: stronger effect = lower value
How it was run: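 Complex spheroids of tumor cells with HUVEC and human MSCs, exposed to iadademstat combined with other agents. Each agent tested in half-log steps from near clinical Cmax (else 10 microM top), DMSO ≤0.25%.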

[1] = curve of first compound, second compound 0.1 µM
[2] = curve of first compound, second compound 0.316 µM
[3] = curve of first compound, second compound 1 µM
[4] = curve of first compound, second compound 3.16 µM
[5] = curve of first compound, second compound 10 µM
[6] = second compound 0.1 µM, first compound 0.0316 µM
[7] = second compound 0.1 µM, first compound 0.1 µM
[8] = second compound 0.1 µM, first compound 0.316 µM
[9] = second compound 0.1 µM, first compound 1 µM
[10] = second compound 0.1 µM, first compound 3.16 µM
[11] = second compound 0.1 µM, first compound 10 µM
[12] = second compound 0.316 µM, first compound 0.0316 µM
[13] = second compound 0.316 µM, first compound 0.1 µM
[14] = second compound 0.316 µM, first compound 0.316 µM
[15] = second compound 0.316 µM, first compound 1 µM
[16] = second compound 0.316 µM, first compound 3.16 µM
[17] = second compound 0.316 µM, first compound 10 µM
[18] = second compound 1 µM, first compound 0.0316 µM
[19] = second compound 1 µM, first compound 0.1 µM
[20] = second compound 1 µM, first compound 0.316 µM
[21] = second compound 1 µM, first compound 1 µM
[22] = second compound 1 µM, first compound 3.16 µM
[23] = second compound 1 µM, first compound 10 µM
[24] = second compound 3.16 µM, first compound 0.0316 µM
[25] = second compound 3.16 µM, first compound 0.1 µM
[26] = second compound 3.16 µM, first compound 0.316 µM
[27] = second compound 3.16 µM, first compound 1 µM
[28] = second compound 3.16 µM, first compound 3.16 µM
[29] = second compound 3.16 µM, first compound 10 µM
[30] = second compound 10 µM, first compound 0.0316 µM
[31] = second compound 10 µM, first compound 0.1 µM
[32] = second compound 10 µM, first compound 0.316 µM
[33] = second compound 10 µM, first compound 1 µM
[34] = second compound 10 µM, first compound 3.16 µM
[35] = second compound 10 µM, first compound 10 µM
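Throughout, for viability, T/C: 100% = DMSO vehicle control viability.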

## CC1(C)CCC(CN2CCN(c3ccc(C(=O)NS(=O)(=O)c4ccc(NCC5CCOCC5)c([N+](=O)[O-])c4)c(Oc4cnc5[nH]ccc5c4)c3)CC2)=C(c2ccc(Cl)cc2)C1 + NC1CCC(NC2CC2c2ccccc2)CC1
[1]
  IC50: > 10000 nM
[2]
  IC50: > 10000 nM
[3]
  IC50: > 10000 nM
[4]
  IC50: > 10000 nM
[5]
  IC50: > 10000 nM
[6]
  viability, T/C: 85.4%
[7]
  viability, T/C: 95%
[8]
  viability, T/C: 92.5%
[9]
  viability, T/C: 91.8%
[10]
  viability, T/C: 90.7%
[11]
  viability, T/C: 126%
[12]
  viability, T/C: 95.9%
[13]
  viability, T/C: 104%
[14]
  viability, T/C: 99.1%
[15]
  viability, T/C: 109%
[16]
  viability, T/C: 96.8%
[17]
  viability, T/C: 88.7%
[18]
  viability, T/C: 99.8%
[19]
  viability, T/C: 89.9%
[20]
  viability, T/C: 82.3%
[21]
  viability, T/C: 79.9%
[22]
  viability, T/C: 92.1%
[23]
  viability, T/C: 81.3%
[24]
  viability, T/C: 90.7%
[25]
  viability, T/C: 100%
[26]
  viability, T/C: 108%
[27]
  viability, T/C: 106%
[28]
  viability, T/C: 92.5%
[29]
  viability, T/C: 77.3%
[30]
  viability, T/C: 80.2%
[31]
  viability, T/C: 88.1%
[32]
  viability, T/C: 70.8%
[33]
  viability, T/C: 78.7%
[34]
  viability, T/C: 78.3%
[35]
  viability, T/C: 63.5%

## CC(C)CC(NC(=O)C(Cc1ccccc1)NC(=O)c1cnccn1)B(O)O (centres undefined) + NC1CCC(NC2CC2c2ccccc2)CC1
[1]
  IC50: 1.03 nM
[2]
  IC50: 1.01 nM
[3]
  IC50: 0.946 nM
[4]
  IC50: 0.951 nM
[5]
  IC50: 0.842 nM
Second compound 0.1 µM, first compound 0.000316 µM
  viability, T/C: 125%
Second compound 0.1 µM, first compound 0.001 µM
  viability, T/C: 51.3%
Second compound 0.1 µM, first compound 0.00316 µM
  viability, T/C: 0.5%
Second compound 0.1 µM, first compound 0.01 µM
  viability, T/C: 0.19%
[6]
  viability, T/C: 0.22%
[7]
  viability, T/C: 0.28%
Second compound 0.316 µM, first compound 0.000316 µM
  viability, T/C: 116%
Second compound 0.316 µM, first compound 0.001 µM
  viability, T/C: 50.6%
Second compound 0.316 µM, first compound 0.00316 µM
  viability, T/C: 0.83%
Second compound 0.316 µM, first compound 0.01 µM
  viability, T/C: 0.29%
[12]
  viability, T/C: 0.16%
[13]
  viability, T/C: 0.25%
Second compound 1 µM, first compound 0.000316 µM
  viability, T/C: 114%
Second compound 1 µM, first compound 0.001 µM
  viability, T/C: 46.8%
Second compound 1 µM, first compound 0.00316 µM
  viability, T/C: 0.91%
Second compound 1 µM, first compound 0.01 µM
  viability, T/C: 0.12%
[18]
  viability, T/C: 0.14%
[19]
  viability, T/C: 0.29%
Second compound 3.16 µM, first compound 0.000316 µM
  viability, T/C: 116%
Second compound 3.16 µM, first compound 0.001 µM
  viability, T/C: 47%
Second compound 3.16 µM, first compound 0.00316 µM
  viability, T/C: 1.46%
Second compound 3.16 µM, first compound 0.01 µM
  viability, T/C: 0.18%
[24]
  viability, T/C: 0.15%
[25]
  viability, T/C: 0.25%
Second compound 10 µM, first compound 0.000316 µM
  viability, T/C: 105%
Second compound 10 µM, first compound 0.001 µM
  viability, T/C: 40.3%
Second compound 10 µM, first compound 0.00316 µM
  viability, T/C: 0.75%
Second compound 10 µM, first compound 0.01 µM
  viability, T/C: 0.3%
[30]
  viability, T/C: 0.22%
[31]
  viability, T/C: 0.24%

## COc1ccc([C@@H](O)c2cc(-c3ncnc4cc(N5CCOCC5)ccc34)c(F)cc2Cl)nn1 + NC1CC1c1ccc(-c2cccc(O)c2)cc1
[1]
  IC50: 620 nM
[2]
  IC50: 2690 nM
[3]
  IC50: 1980 nM
[4]
  IC50: 2200 nM
[5]
  IC50: 2490 nM
[6]
  viability, T/C: 73.2%
[7]
  viability, T/C: 60.4%
[8]
  viability, T/C: 57%
[9]
  viability, T/C: 45.5%
[10]
  viability, T/C: 38.2%
[11]
  viability, T/C: 24.6%
[12]
  viability, T/C: 67%
[13]
  viability, T/C: 72.2%
[14]
  viability, T/C: 66.1%
[15]
  viability, T/C: 58.3%
[16]
  viability, T/C: 49.2%
[17]
  viability, T/C: 28.5%
[18]
  viability, T/C: 77.2%
[19]
  viability, T/C: 73.5%
[20]
  viability, T/C: 61%
[21]
  viability, T/C: 61.6%
[22]
  viability, T/C: 44.7%
[23]
  viability, T/C: 25.1%
[24]
  viability, T/C: 68.3%
[25]
  viability, T/C: 79.5%
[26]
  viability, T/C: 65.4%
[27]
  viability, T/C: 58.8%
[28]
  viability, T/C: 46.4%
[29]
  viability, T/C: 26%
[30]
  viability, T/C: 99.8%
[31]
  viability, T/C: 90.6%
[32]
  viability, T/C: 77%
[33]
  viability, T/C: 63.9%
[34]
  viability, T/C: 48.1%
[35]
  viability, T/C: 25.3%

## CCc1c2c(nc3ccc(O)cc13)-c1cc3c(c(=O)n1C2)COC(=O)[C@]3(O)CC
Compound 0.000949 µM
  viability, T/C: 71.5% and 50.2%
Compound 0.003 µM
  viability, T/C: 68.2% and 39%
Compound 0.00949 µM
  viability, T/C: 48.7% and 26.2%
Compound 0.03 µM
  viability, T/C: 11.6% and 0.27%
Compound 0.0949 µM
  viability, T/C: 0.5% and 0.83%
Compound 0.3 µM
  viability, T/C: 0.52% and 0.33%
Curve of compound
  IC50: 8.76 nM and < 0.949 nM

## Nc1ccccc1NC(=O)c1ccc(CNC(=O)OCc2cccnc2)cc1
Compound 0.00949 µM
  viability, T/C: 96.2% and 67%
Compound 0.03 µM
  viability, T/C: 93.9% and 66.7%
Compound 0.0949 µM
  viability, T/C: 86.3% and 61.3%
Compound 0.3 µM
  viability, T/C: 80.7% and 49.9%
Compound 0.949 µM
  viability, T/C: 61.3% and 13.2%
Compound 3 µM
  viability, T/C: 4.61% and 0.47%
Curve of compound
  IC50: 1160 nM and 279 nM

## CCN(c1cc(-c2ccc(CN3CCOCC3)cc2)cc(C(=O)NCc2c(C)cc(C)[nH]c2=O)c1C)C1CCOCC1 + NC1CCC(NC2CC2c2ccccc2)CC1
[1]
  IC50: > 3000 nM
[2]
  IC50: > 3000 nM
[3]
  IC50: > 3000 nM
[4]
  IC50: > 3000 nM
[5]
  IC50: > 3000 nM
Second compound 0.1 µM, first compound 0.00949 µM
  viability, T/C: 101%
Second compound 0.1 µM, first compound 0.03 µM
  viability, T/C: 87.9%
Second compound 0.1 µM, first compound 0.0949 µM
  viability, T/C: 109%
Second compound 0.1 µM, first compound 0.3 µM
  viability, T/C: 92.4%
Second compound 0.1 µM, first compound 0.949 µM
  viability, T/C: 106%
Second compound 0.1 µM, first compound 3 µM
  viability, T/C: 111%
Second compound 0.316 µM, first compound 0.00949 µM
  viability, T/C: 101%
Second compound 0.316 µM, first compound 0.03 µM
  viability, T/C: 101%
Second compound 0.316 µM, first compound 0.0949 µM
  viability, T/C: 91%
Second compound 0.316 µM, first compound 0.3 µM
  viability, T/C: 95.3%
Second compound 0.316 µM, first compound 0.949 µM
  viability, T/C: 124%
Second compound 0.316 µM, first compound 3 µM
  viability, T/C: 105%
Second compound 1 µM, first compound 0.00949 µM
  viability, T/C: 98.6%
Second compound 1 µM, first compound 0.03 µM
  viability, T/C: 106%
Second compound 1 µM, first compound 0.0949 µM
  viability, T/C: 98.2%
Second compound 1 µM, first compound 0.3 µM
  viability, T/C: 90.3%
Second compound 1 µM, first compound 0.949 µM
  viability, T/C: 97.7%
Second compound 1 µM, first compound 3 µM
  viability, T/C: 103%
Second compound 3.16 µM, first compound 0.00949 µM
  viability, T/C: 99.2%
Second compound 3.16 µM, first compound 0.03 µM
  viability, T/C: 103%
Second compound 3.16 µM, first compound 0.0949 µM
  viability, T/C: 90.6%
Second compound 3.16 µM, first compound 0.3 µM
  viability, T/C: 92.3%
Second compound 3.16 µM, first compound 0.949 µM
  viability, T/C: 110%
Second compound 3.16 µM, first compound 3 µM
  viability, T/C: 105%
Second compound 10 µM, first compound 0.00949 µM
  viability, T/C: 88.9%
Second compound 10 µM, first compound 0.03 µM
  viability, T/C: 86.7%
Second compound 10 µM, first compound 0.0949 µM
  viability, T/C: 82.2%
Second compound 10 µM, first compound 0.3 µM
  viability, T/C: 90.9%
Second compound 10 µM, first compound 0.949 µM
  viability, T/C: 84.9%
Second compound 10 µM, first compound 3 µM
  viability, T/C: 84.8%

From PubChem BioAssay AID1918931 (Molecular Pharmacology Branch, DTP, NCI, 2023)
